Patent publication US4851426A, “Ethoxycarbonyloxy ethyl esters of non-steroidal anti-inflammatory carboxylic acids and pharmaceutical compositions thereof” (Teva Pharmaceutical Industries, Ltd., priority 1982, dated 1989)

Legend:
[1] = system: inflamed foot of the rat (brewers' yeast); experiment: Analgesic action, pressure reaction threshold of yeast-inflamed foot (Basile-Analgesy-Meter); format: in vivo; design: % of control 1 hr / % of control 3 hrs: concentration or dose not given beside the values; details: for % effect vs. parent compound 1 hr / % effect vs. parent compound 3 hrs: relative to parent; for % of control 1 hr / % of control 3 hrs: pressure reaction threshold, rat, oral
Source text: Male rats, weighing 95-140 g, 10 rats per experimental group. The major reason for selecting rats of this weight range is the ease in handling smaller sized animals in this particular test. Animals are fed and provided drinking water ad libitium until time of testing. […] (Note: Brewers' yeast, locally obtainable from "Abir" breweries, may be kept under refrigeration for a period of at least 6 months). […] This instrument is basically a device which […] force that increases at a constant rate (a certain number of grams per second). […] Note: In case weight discs are being used to increase the force of pressure applied, the same number of discs should be employed throughout the entire experiment for both experimental and control animals. For detailed operation of the analgesy-meter reference to the specific instructions of the instrument given in the appendix. a. […] The differences in the various Mean Group Values between treatment and control group are analyzed for statistical significance using the Student t-Test.

[2] = Ulcerogenicity; format: in vivo, rat; design: key to UI max: ulcer index = mean sum of individual lesion lengths per rat; details: rat, in vivo; dose causing UI50; female rats, oral, 5 hours; read-out: UD50
Method: (§1) Methods: Six groups of 10 female Charles River rats weighing 170-230 g were used for each drug. […] Drugs were freshly suspended in water with 1% carboxymethyl cellulose and administered by stomach tube. Rats treated were sacrificed 5 hours after oral gavage. Ulcers were evaluated under a magnifying lens, after the stomach had been dissected out, opened along the lesser curvature and rinsed.
(§2) Ulcer index (UI) for each group was calculated as the mean sum of the lengths of the individual lesions in each rat.
(§3) Apparent maximal ulcerogenicity was calculated from regression analysis of the ascending parts of each dose-response curve.

[3] = system: stomach ulcers in rats; experiment: Ulcerogenicity; format: in vivo, rat; design: key to UI max: ulcer index = mean sum of individual lesion lengths per rat; details: for UI50: 50% of ulcerogenic index max, + on value: dose response curve acquired bell shape
Method: as §1, §2, §3

[4] = hydrolysis in aqueous acidic medium (simulated gastro-intestinal juices), HPLC; format: physicochemical; details: for Ester (%): 0 min; for Ester (%), in words: same acidic conditions, 37° C.; for stability of ECOE ester against hydrolysis in acidic medium: acidic medium (simulated gastric juice)
Method: The rates of hydrolysis of 2-(acetyloxy)benzoic acid (Aspirin) ethoxy carbonyloxy ethyl ester to salicylethoxy carbonyloxy ethyl ester in the aqueous acidic medium (simulated gastro-intestinal juices) were determined by dissolving the ester to a pre-determined concentration in the acidic medium containing THF: aqueous conc. HCl=1:1 and the rate of hydrolysis at 37° C. was measured by the HPLC method.
The rates of hydrolysis of acetyl salicylic acid ethoxy carbonyloxy ethyl ester to salicyl-ethoxy carbonyloxy ethyl ester in aqueous acidic system (simulated gastrointestinal juices) are given in the following table:
Ethoxy carbonyloxy ethyl ester of Aspirin was dissolved to a predetermined concentration in an acidic aqueous medium (simulated gastric juice)--mixture THF; aqueous conc. HCl (1:1) and the rate of hydrolysis at 37° C. was measured by HPLC method.

[5] = Bioavailability-pharmacokinetic profile in rats (plasma salicylate, fluorometry); format: in vivo; details: in words, rat
Method: Methods: Female Charles River rats weighing 200-250 g were used. Rates were starved for a 24 hour period prior to each experiment, while water was allowed ad libitum. […] Plasma salicylate concentrations were measured by fluorometry according to Frey and El-Sayed (Arch. Int. Pharmacodyn. 230: 300, 1977). […] Statistical evaluation was effected by (unpaired) Student t test.

[6] = dose causing max ulcerogenic index
[7] = dose-response of ulcer index, female rats, oral, 5 hours
[8] = THF: aqueous conc. HCl 1:1, 37° C.

Row | SMILES | % effect vs. parent compound 1 hr [1] [%] | % effect vs. parent compound 3 hrs [1] [%] | % of control 1 hr [1] [%] | % of control 3 hrs [1] [%] | TD50 at 5 h [2] [µmol/kg] | UI50 [3] | UD max [3, 6] [mmol/kg] | Slope [3, 7] [Uxkg/mmole] | UI max ([3]; ulcerogenic index max) | UD max ([3]; rat, in vivo) [mmol/kg] | UI max ([3]; rat, in vivo) | Slope ([3]; rat, in vivo, po) [Uxkg/mmole] | also measured
1 | CCOC(=O)OC(C)OC(=O)C(C)c1ccc2cc(OC)ccc2c1 (single isomer, unassigned; (+)) [Naproxen-ECOE ester, (+)-6-Methoxy-α-methyl-2-naphthaleneacetic acid 1'-ethoxycarbonyloxy ethyl ester] | 108 | 91 | 125 | 121 | 590 | 32.5 | 1.0 | 63.5 ± 0.59 | 65.0 | – | – | – | –
2 | CCOC(=O)OC(C)OC(=O)c1ccccc1O (stereo not shown) [1'-ethoxy carbonyloxy ethyl ester of salicyclic acid] | – | – | – | – | – | – | – | – | – | – | – | – | Ester (%) [4, 8]: 100%; Ester (%), in words ([4]; 150 min): unchanged; Ester (%), in words ([4]; 180 min): unchanged; Ester (%), in words ([4]; 210 min): unchanged; Ester (%), in words ([4]; 240 min): unchanged; stability of ECOE ester against hydrolysis in acidic medium ([4]; in words, listed as 1'-ethoxycarbonyloxy ethyl ester of salicylic acid): stable in acidic medium; stability of ECOE ester against hydrolysis in acidic medium ([4]; in words, listed as Salicyl 2-ethoxy carbonyloxy ethyl ester): stable; stability of ECOE ester against hydrolysis in acidic medium ([4]; in words, listed as salicyclic acid 2-ethoxycarbonyloxy ethyl ester): stable
3 | CC(=O)Oc1ccccc1C(=O)O [Aspirin, 2-(acetyloxy)benzoic acid, reference compound] | – | – | 126 | 100 | 20 | – | – | – | – | 0.4 | 92.6 | 33.7 ± 11.5 | –
4 | CCOC(=O)OC(C)OC(=O)c1ccccc1OC(C)=O (stereo not shown) [Aspirin-ECOE ester, 1'-ethoxy carbonyloxy ethyl ester of 2-(acetyloxy)benzoic acid (Aspirin)] | 141 | 150 | 178 | 148 | 20 | 20.5 | 0.4 | 13.7 ± 6.5 | 40.9 | – | – | – | bioavailability of salicylate ([5]; oral 0.4 mmole/kg): seems complete; rate of appearance of salicylate ([5]; oral, vs plain aspirin): seems slower; Ester (%) [4, 8]: 100%; remaining at 0.5 h ([4]; 30 min, THF: aqueous conc. HCl 1:1, 37° C., read-out: Ester (%)): 96%; remaining at 1 h ([4]; 60 min, THF: aqueous conc. HCl 1:1, 37° C., read-out: Ester (%)): 92%; remaining at 1.5 h ([4]; 90 min, THF: aqueous conc. HCl 1:1, 37° C., read-out: Ester (%)): 90%; remaining at 2 h ([4]; 120 min, THF: aqueous conc. HCl 1:1, 37° C., read-out: Ester (%)): 90%; remaining at 2.5 h ([4]; 150 min, THF: aqueous conc. HCl 1:1, 37° C., read-out: Ester (%)): 84%; remaining at 3 h ([4]; 180 min, THF: aqueous conc. HCl 1:1, 37° C., read-out: Ester (%)): 82%; remaining at 3.5 h ([4]; 210 min, THF: aqueous conc. HCl 1:1, 37° C., read-out: Ester (%)): 76%; hydrolysis of acetyl group in acidic medium ([4]; in words, acetyl group, simulated gastric juices): readily hydrolysed off; stability of ECOE ester against hydrolysis in acidic medium ([4]; in words): not readily hydrolysed off; ulcerogenicity compared with parent ([3]; in words, vs parent acid): much smaller ulcerogenic liability
5 | O=C(O)Cc1ccccc1Nc1c(Cl)cccc1Cl [Diclofenac, reference compound] | – | – | – | – | – | – | – | – | – | 0.6 | 61.8 | 31.1 ± 8.7 | –
6 | CCOC(=O)OC(C)OC(=O)Cc1ccccc1Nc1c(Cl)cccc1Cl (stereo not shown) [Diclofenac-ECOE ester] | 86 | 82 | 106 | 110 | – | – | 0.6 | 21.1 | 34.9 | – | – | – | –
7 | CC(C)Cc1ccc(C(C)C(=O)O)cc1 (stereo not shown) [Ibuprofen, reference compound] | – | – | 152 | 145 | 325 | – | – | – | – | 2.8 | 52.0 | 38.1 ± 8.0 | –
8 | CCOC(=O)OC(C)OC(=O)C(C)c1ccc(CC(C)C)cc1 (stereo not drawn) [Ibuprofen-ECOE ester, α-Methyl-4-(2-methylpropyl)benzene--acetic acid 1'-ethoxycarbonyloxy ethyl ester] | 115 | 89 | 176 | 129 | 300 | 13.0 | 0.7 | 36.7 ± 8.5 | 26.0 | – | – | – | –
9 | COc1ccc2c(c1)c(CC(=O)O)c(C)n2C(=O)c1ccc(Cl)cc1 [Indomethacin, reference compound] | – | – | 128 | 146 | – | – | – | – | – | 0.32 | 60 | 50 | –
10 | CCOC(=O)OC(C)OC(=O)Cc1c(C)n(C(=O)c2ccc(Cl)cc2)c2ccc(OC)cc12 (stereo not shown) [Indomethacin-ECOE ester, 1-(p-Chlorobenzoyl)-5-methoxy-2-methylindole-3-acetic acid 1'-ethoxycarbonyloxy ethyl ester] | 102 | 105 | 130 | 153 | – | – | 0.32 | 34 ± 13.8 | 42.0 | – | – | – | –
11 | COc1ccc2cc([C@H](C)C(=O)O)ccc2c1 [Naproxen, reference compound] | – | – | 116 | 133 | – | 31.0 | 2.0 | 41.0 ± 14.2 | 62.0 | – | – | – | –
